Data on 2 compounds can be found in patent publication US11952364B2, “TRK inhibitors useful as anticancer drugs” (TYLIGAND BIOSCIENCE (SHANGHAI) LIMITED, priority 2018, dated 2024).

One data set has as its target P450 2C19 (Homo sapiens (Human), UniProt P33261). Briefly: Cytochrome P450 inhibition in human liver microsomes. In kind it is in vitro ADME. An excerpt: (§1) According to the standard methods conventional in the art for cytochrome P450 enzyme system study, for example those described in Kerns, Edward H. and Di Li (2008). Drug-like Properties: Concepts. Structure Design and Methods: from ADME to Toxicity Optimization. San Diego: Academic Press; Lin, Tong et al., In Vitro Assessment of Cytochrome P450 Inhibition: Strategies for Increasing LC/MS-Based Assay Throughput Using a One-Point IC50 Method and Multiplexing High-Performance Liquid Chromatography; J. Pharm. Sci. 2007, 96(9), 2485.), the inhibitory effect of the compounds of the present disclosure on the cytochrome P450 enzyme system was investigated analogously as follows. The test compounds were evaluated by detecting the metabolism of human liver microsomes for the substrates of different subtypes of Cyp450. The liver microsomes (Sekisui XenoTech, LLC., human liver microsomes, cat. #H0610) were slowly melted on ice, and 0.482 mL of the liver microsome solution (20 mg/mL) was added to 30 mL of 100 mM potassium phosphate solution to prepare a liver microsome working solution with a concentration of 0.316 mg/mL. The test compound and specific inhibitors of different Cyp450 subtypes (as a control) were prepared into 10 mM DMSO solutions, and then 20 μL of the 10 mM DMSO compound solution was added to 180 μL of acetonitrile to obtain a 1 mM compound solution. 2 μL of such 1 mM test compound or inhibitor solution was added to 150 μL of 0.316 mg/mL liver microsome working solution to obtain a 13.16 μM compound working solution. 45.3 mg of NADPH (SIGMA, cat. #V900362) was weighted and added into 13.59 mL of deionized water to prepare a 4 mM NADPH aqueous solution. 0.2 mL of 2 mg/mL internal standard stock solution (dexamethasone in acetonitrile) was added to 1000 mL of acetonitrile (SIGMA, cat. #271004) to prepare a reaction stop solution and stored at 4° C. 150 μL 0.316 mg/mL human liver microsome working solution was added to each well of a 96-well deep plate, and 2 μL of 1 mM specific inhibitor or test compound solution was added to the corresponding wells, and then added to each well 50 μL preheated working solution of each substrate (in 4 mM NADPH solution). After incubating for 5-40 minutes respectively (different enzymes have different incubation times), 200 μL of pre-cooled reaction stop solution was added. All samples were centrifuged at 4000 rpm for 20 minutes. 150 μL of the centrifugal supernatant was then added to a new 96-well deep plate, and added to each well 150 μL of 0.1% formic acid aqueous solution, for analysis by LC/MS/MS (SCI AP4000). The single point IC50 values were calculated according to the following formula. [formula] • (Assuming Hill slope=1) • C0=concentration of test compound and inhibitor solution
(Microsomes from liver hold many membrane-bound enzymes, among them those of drug oxidation.)

The next data set addresses P450 2D6 (Homo sapiens (Human), UniProt P10635). Described as above. In kind it is in vitro ADME.
Description: as §1

Another data set concerns the target P450 1A2 (Homo sapiens (Human), UniProt P05177). Described as above. In kind it is in vitro ADME.
Description: as §1

A further data set deals with P450 2C9 (Homo sapiens (Human), UniProt P11712). Described as above. In kind it is in vitro ADME.
Description: as §1

In the next data set the test system is FLT3(ITD). In words: KINOMEscan competition binding assay. Also on record: species or system human. The note with it: 2 μM. The method, then: The experiment was performed according to the standard kinase activity determination protocol by Eurofins DiscoverX Corporation (11180 Roselle St. Suite D, San Diego, CA, USA, www.discoverX.com). Specifically, the experiment was conducted using the KINOMEscan™ screening platform, which adopts an active site-directed competition binding assay to quantitatively measure the interaction between test compounds and more than hundreds of human kinases and disease-related mutants. The working principle of the screening platform and kinase assay methods are well known in the art, for example, see www.discoverX.com.

P450 2C9, sequence (P11712 whole entry): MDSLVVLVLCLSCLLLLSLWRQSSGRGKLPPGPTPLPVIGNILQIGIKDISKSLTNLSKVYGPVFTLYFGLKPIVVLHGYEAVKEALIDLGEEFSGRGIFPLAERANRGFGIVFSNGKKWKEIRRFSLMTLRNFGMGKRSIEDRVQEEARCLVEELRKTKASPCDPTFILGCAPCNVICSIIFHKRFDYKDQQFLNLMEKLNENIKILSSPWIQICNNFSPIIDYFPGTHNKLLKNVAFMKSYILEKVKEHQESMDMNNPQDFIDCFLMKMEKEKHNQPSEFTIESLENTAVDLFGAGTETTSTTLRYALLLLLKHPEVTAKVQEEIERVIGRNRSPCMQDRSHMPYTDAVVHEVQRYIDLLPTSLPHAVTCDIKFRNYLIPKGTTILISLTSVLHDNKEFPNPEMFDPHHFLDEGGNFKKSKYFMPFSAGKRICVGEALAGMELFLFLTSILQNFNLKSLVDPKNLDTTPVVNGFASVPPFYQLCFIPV
P450 2C19, sequence (P33261 whole entry): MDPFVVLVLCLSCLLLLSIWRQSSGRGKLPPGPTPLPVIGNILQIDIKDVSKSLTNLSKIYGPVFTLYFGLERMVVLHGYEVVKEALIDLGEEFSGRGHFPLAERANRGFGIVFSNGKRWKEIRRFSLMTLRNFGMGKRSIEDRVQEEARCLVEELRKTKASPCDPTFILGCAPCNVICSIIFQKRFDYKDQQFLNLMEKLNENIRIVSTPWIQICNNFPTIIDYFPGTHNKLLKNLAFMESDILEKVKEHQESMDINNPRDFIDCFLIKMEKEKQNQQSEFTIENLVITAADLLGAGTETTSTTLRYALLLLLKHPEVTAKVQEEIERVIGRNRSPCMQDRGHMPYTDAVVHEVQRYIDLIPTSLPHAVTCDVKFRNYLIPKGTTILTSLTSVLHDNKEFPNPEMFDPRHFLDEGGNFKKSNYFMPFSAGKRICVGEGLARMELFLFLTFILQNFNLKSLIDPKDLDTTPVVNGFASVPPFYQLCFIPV
P450 1A2, sequence (P05177 whole entry): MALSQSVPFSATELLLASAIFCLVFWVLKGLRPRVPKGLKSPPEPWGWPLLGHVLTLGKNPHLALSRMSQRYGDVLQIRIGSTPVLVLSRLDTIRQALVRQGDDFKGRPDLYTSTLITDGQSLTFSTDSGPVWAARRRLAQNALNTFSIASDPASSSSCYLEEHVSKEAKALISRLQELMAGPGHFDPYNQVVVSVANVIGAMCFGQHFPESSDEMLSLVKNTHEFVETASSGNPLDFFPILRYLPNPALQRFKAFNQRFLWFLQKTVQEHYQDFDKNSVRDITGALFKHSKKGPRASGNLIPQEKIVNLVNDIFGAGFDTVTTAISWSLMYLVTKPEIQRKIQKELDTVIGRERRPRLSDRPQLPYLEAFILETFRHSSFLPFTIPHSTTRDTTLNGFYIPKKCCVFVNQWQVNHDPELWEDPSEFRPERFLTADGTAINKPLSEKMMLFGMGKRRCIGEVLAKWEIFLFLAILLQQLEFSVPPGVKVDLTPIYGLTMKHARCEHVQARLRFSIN
P450 2D6, sequence (P10635 whole entry): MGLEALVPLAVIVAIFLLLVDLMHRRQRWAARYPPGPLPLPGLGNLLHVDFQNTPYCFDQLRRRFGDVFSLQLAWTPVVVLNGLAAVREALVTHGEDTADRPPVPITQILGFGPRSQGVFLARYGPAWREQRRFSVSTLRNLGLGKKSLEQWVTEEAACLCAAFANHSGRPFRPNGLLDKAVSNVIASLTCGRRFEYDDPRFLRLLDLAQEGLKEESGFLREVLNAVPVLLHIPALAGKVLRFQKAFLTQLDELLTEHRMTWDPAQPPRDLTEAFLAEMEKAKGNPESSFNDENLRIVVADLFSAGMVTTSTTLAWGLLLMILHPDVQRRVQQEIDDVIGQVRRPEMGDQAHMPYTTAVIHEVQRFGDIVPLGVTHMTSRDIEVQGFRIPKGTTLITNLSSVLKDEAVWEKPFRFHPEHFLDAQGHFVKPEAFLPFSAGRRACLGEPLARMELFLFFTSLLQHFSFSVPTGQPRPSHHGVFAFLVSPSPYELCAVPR

What is called IC50 is the concentration at which inhibition is half-maximal. A low value points to greater potency in that assay. As a reminder, the % inhibition is the percentage by which the read-out fell short of the control. A low value points to little suppression. For `COc1ccc(C(=O)Nc2ccc(Oc3cc4cnn(C)c4cc3-c3cn[nH]c3)c(F)c2)c(=O)n1-c1ccc(F)cc1` [Example 12, N-(3-fluoro-4-(1-methyl-6-(1H-pyrazol-4-yl)-1H-indazol-5-yloxy)phenyl)-1-(4-fluorophenyl)-6-methoxy-2-oxo-1,2-dihydropyridine-3-carboxamide], the IC50 on P450 2C19 was > 10 µM; at P450 2D6, > 10 µM; against P450 1A2, > 10 µM; on P450 2C9 it was 9.8 µM. The “inhibitory activity on 2C9 compared with Merestinib” value at P450 2C9 (statement in words) is “significantly lower than that of the prior inhibitor Merestinib”. In addition, the “% inhibition” value in the data set with FLT3(ITD) was determined as 98%.

With `Cc1ccc(C(=O)Nc2ccc(Oc3cc4cnn(C)c4cc3-c3cn[nH]c3)c(F)c2)c(=O)n1-c1ccc(F)cc1` [Merestinib, reference compound], the IC50 is > 10 µM against P450 2C19, > 10 µM on P450 2D6, > 10 µM against P450 1A2 and 4.2 µM against P450 2C9.
